Measurements as given in ChEMBL document CHEMBL1201862, “PubChem BioAssay data set” (2004).
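Step 1: Grow cells in 96-well plates. Step 2: Expose to compound for 48 hours at 5 concentrations. Step 3: Interpolate endpoints linearly; if unreached, use highest concentration. Abbreviation: GI50, concentration required for 50% inhibition of growth.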 Calls of active or inactive are those of the source. No stated cut-off is given here; in the data, active = GI50 up to about 1.1 µM and inactive = higher. Where a SMILES comes first, the peptide text is derived from it. The star is where a group is joined. Cbz = O=C(OCc1ccccc1)*

Legend:
Experiment in all cases: DTP human tumour cell line panel, 48 h
SF-539 = system: SF-539
OVCAR-5 = system: OVCAR-5
UACC-62 = system: UACC-62
LOX IMVI = system: LOX IMVI
HOP-62 = system: HOP-62
MDA-N = system: MDA-N
OVCAR-3 = system: OVCAR-3
PC-3 = system: PC-3
HCC 2998 = system: HCC 2998
NCI-H522 = system: NCI-H522
ACHN = system: ACHN
COLO 205 = system: COLO 205
SN12C = system: SN12C
K562 = system: K562
HOP-92 = system: HOP-92
KM12 = system: KM12

Measured: GI50

CC(C)(C)NC(=O)/C(=C\Sc1ccccc1)c1ccccc1
inactive: SF-539 > 64 µM | OVCAR-5 > 100 µM | UACC-62 > 100 µM | LOX IMVI 20.3 µM | HOP-62 > 100 µM | MDA-N 71.1 µM | OVCAR-3 > 100 µM | PC-3 > 76.2 µM | HCC 2998 > 100 µM | NCI-H522 6.15 µM | ACHN > 100 µM | COLO 205 > 71 µM | SN12C > 100 µM | K562 32.7 µM | HOP-92 2.54 µM | KM12 > 100 µM

O=c1cc(-c2ccc(O)cc2)oc2cc(O[C@@H]3O[C@H](CO)[C@@H](O)[C@H](O)[C@H]3O)cc(O)c12 [APIGETRIN]
inactive: SF-539 48.5 µM | OVCAR-5 > 100 µM | UACC-62 43.3 µM | LOX IMVI 33.1 µM | HOP-62 > 100 µM | MDA-N 46 µM | OVCAR-3 > 100 µM | PC-3 33.2 µM | HCC 2998 36.1 µM | NCI-H522 31.1 µM | ACHN 26.2 µM | COLO 205 > 100 µM | SN12C > 100 µM | K562 77.8 µM | HOP-92 83.9 µM | KM12 13.9 µM

CNc1ncnc2c1cnn2Cc1cn(COCC(O)CO)nn1 (stereo not given)
inactive: SF-539 > 100 µM | OVCAR-5 > 100 µM | UACC-62 > 100 µM | LOX IMVI > 100 µM | HOP-62 > 100 µM | MDA-N > 100 µM | OVCAR-3 > 100 µM | PC-3 > 100 µM | HCC 2998 > 100 µM | ACHN > 100 µM | COLO 205 > 100 µM | SN12C > 100 µM | HOP-92 59.4 µM | KM12 > 100 µM

CN(O)C(=O)CCC(NC(=O)CCC(N)C(=O)O)C(=O)NCC(=O)O (stereo not given)
inactive: SF-539 > 100 µM | OVCAR-5 > 100 µM | UACC-62 > 100 µM | LOX IMVI > 100 µM | HOP-62 > 100 µM | MDA-N > 100 µM | OVCAR-3 > 100 µM | PC-3 > 100 µM | HCC 2998 > 100 µM | NCI-H522 > 100 µM | ACHN > 100 µM | COLO 205 > 100 µM | SN12C > 100 µM | K562 > 100 µM | HOP-92 > 100 µM | KM12 > 100 µM

COC(OC)[C@@H]1OC[C@H](n2cnc3c(N)ncnc32)[C@H]1O
inactive: SF-539 > 100 µM | OVCAR-5 > 100 µM | UACC-62 > 100 µM | LOX IMVI > 100 µM | HOP-62 > 100 µM | MDA-N > 100 µM | OVCAR-3 > 100 µM | PC-3 > 100 µM | HCC 2998 > 100 µM | ACHN > 100 µM | COLO 205 > 100 µM | SN12C > 100 µM | K562 > 100 µM | HOP-92 > 100 µM | KM12 > 100 µM

O=C1/C(=C2\Sc3c(ccc(Cl)c3Cl)C2=O)Sc2c1ccc(Cl)c2Cl
inactive: SF-539 > 100 µM | OVCAR-5 > 100 µM | UACC-62 > 100 µM | HOP-62 12.6 µM | MDA-N > 100 µM | OVCAR-3 12.5 µM | PC-3 > 100 µM | HCC 2998 > 100 µM | NCI-H522 > 100 µM | ACHN > 100 µM | COLO 205 > 100 µM | SN12C > 100 µM | K562 > 100 µM | HOP-92 > 100 µM | KM12 > 100 µM

Cc1ccc(S(=O)(=O)NNC(=S)Nc2cccc3ccccc23)cc1
inactive: SF-539 80.4 µM | OVCAR-5 89.3 µM | UACC-62 32.1 µM | HOP-62 59.3 µM | MDA-N 55.3 µM | PC-3 37.2 µM | HCC 2998 53.8 µM | NCI-H522 16.7 µM | ACHN 29.9 µM | COLO 205 36.8 µM | SN12C 33.7 µM | K562 35.5 µM | HOP-92 30.6 µM | KM12 23.4 µM

O=C1C(Cl)C2(CC(/C=C/c3ccccc3Cl)=NN2c2cccc(S(=O)(=O)O)c2)N1c1nc2ccccc2s1 (stereo not given)
inactive: SF-539 7.67 µM | OVCAR-5 > 100 µM | UACC-62 18.9 µM | LOX IMVI 12.4 µM | MDA-N 46 µM | PC-3 66.4 µM | HCC 2998 85.9 µM | NCI-H522 12.6 µM | ACHN 42.7 µM | COLO 205 > 100 µM | SN12C 93.5 µM | K562 2.11 µM | HOP-92 36.6 µM | KM12 14.7 µM

N=c1oc2ccccc2cc1C(=O)Nc1cccc2ccccc12
inactive: SF-539 > 100 µM | OVCAR-5 > 100 µM | UACC-62 > 100 µM | LOX IMVI > 100 µM | HOP-62 50 µM | MDA-N > 100 µM | OVCAR-3 > 100 µM | PC-3 > 100 µM | HCC 2998 > 100 µM | ACHN > 100 µM | COLO 205 > 100 µM | SN12C > 100 µM | K562 > 100 µM | HOP-92 > 100 µM | KM12 > 100 µM

Clc1ccc(/C=N/c2ccc3c(c2)Cc2ccccc2-3)c(Cl)c1
inactive: SF-539 > 100 µM | OVCAR-5 > 100 µM | UACC-62 > 100 µM | LOX IMVI 92.9 µM | HOP-62 > 100 µM | MDA-N 53.2 µM | OVCAR-3 > 100 µM | PC-3 > 100 µM | NCI-H522 > 100 µM | ACHN > 100 µM | COLO 205 > 100 µM | SN12C > 100 µM | K562 58.3 µM | HOP-92 > 100 µM | KM12 > 100 µM

CN(C)/N=C1\C=C2CC[C@H](O[Si](C)(C)C(C)(C)C)[C@@]2(C)CC1
inactive: SF-539 26.2 µM | OVCAR-5 16.9 µM | UACC-62 15.1 µM | LOX IMVI 18.3 µM | HOP-62 17.9 µM | MDA-N 19.9 µM | OVCAR-3 14.5 µM | PC-3 14.1 µM | HCC 2998 16.9 µM | NCI-H522 10.4 µM | ACHN 16.5 µM | COLO 205 16.9 µM | K562 15.5 µM | HOP-92 15.2 µM | KM12 16.4 µM

CCSC1=CC2(O)N(CCc3ccc(OC)c(OC)c3)C(=O)CC2(C(=O)OC)CC1=O (stereo not given)
inactive: SF-539 26.3 µM | OVCAR-5 > 100 µM | UACC-62 19.5 µM | LOX IMVI 19.1 µM | HOP-62 18.2 µM | MDA-N 31.3 µM | OVCAR-3 18.2 µM | PC-3 18.7 µM | HCC 2998 18.5 µM | ACHN 29.9 µM | COLO 205 77.6 µM | SN12C 19.6 µM | K562 37.9 µM | HOP-92 14.6 µM | KM12 18.5 µM

COC(=O)C(CC(C)C)NC(=O)C(CCCNC(=N)N)NC(=O)OCc1ccccc1 (stereo not drawn) (Cbz-Arg-Leu-OMe; configuration not given here)
inactive: OVCAR-5 > 100 µM | UACC-62 > 100 µM | LOX IMVI > 100 µM | HOP-62 > 100 µM | MDA-N > 100 µM | OVCAR-3 > 100 µM | PC-3 > 100 µM | HCC 2998 > 100 µM | NCI-H522 78.5 µM | ACHN > 100 µM | COLO 205 > 100 µM | SN12C > 100 µM | K562 > 100 µM | HOP-92 > 100 µM | KM12 > 100 µM
